# Source: PubChem BioAssay AID1671465 (Sanford-Burnham Center for Chemical Genomics, 2021)
# Calls of active or inactive are those of the source.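 The calls were made as follows: active = compounds whose mean EC50 for raising GC-A cGMP output is under 66 µM; inactive = the rest.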
# Target: Atrial natriuretic peptide receptor 1 (Homo sapiens) (UniProt P16066)
# Assay: GC-A receptor activator analogs potency, SAR follow-up, HEK293 GC-A cells, cGMP TR-FRET, powder samples (AID 1671465)
# Conditions: EC30 ANP
# Atrial natriuretic peptide receptor 1 (Homo sapiens), sequence (P16066 whole entry, looked up): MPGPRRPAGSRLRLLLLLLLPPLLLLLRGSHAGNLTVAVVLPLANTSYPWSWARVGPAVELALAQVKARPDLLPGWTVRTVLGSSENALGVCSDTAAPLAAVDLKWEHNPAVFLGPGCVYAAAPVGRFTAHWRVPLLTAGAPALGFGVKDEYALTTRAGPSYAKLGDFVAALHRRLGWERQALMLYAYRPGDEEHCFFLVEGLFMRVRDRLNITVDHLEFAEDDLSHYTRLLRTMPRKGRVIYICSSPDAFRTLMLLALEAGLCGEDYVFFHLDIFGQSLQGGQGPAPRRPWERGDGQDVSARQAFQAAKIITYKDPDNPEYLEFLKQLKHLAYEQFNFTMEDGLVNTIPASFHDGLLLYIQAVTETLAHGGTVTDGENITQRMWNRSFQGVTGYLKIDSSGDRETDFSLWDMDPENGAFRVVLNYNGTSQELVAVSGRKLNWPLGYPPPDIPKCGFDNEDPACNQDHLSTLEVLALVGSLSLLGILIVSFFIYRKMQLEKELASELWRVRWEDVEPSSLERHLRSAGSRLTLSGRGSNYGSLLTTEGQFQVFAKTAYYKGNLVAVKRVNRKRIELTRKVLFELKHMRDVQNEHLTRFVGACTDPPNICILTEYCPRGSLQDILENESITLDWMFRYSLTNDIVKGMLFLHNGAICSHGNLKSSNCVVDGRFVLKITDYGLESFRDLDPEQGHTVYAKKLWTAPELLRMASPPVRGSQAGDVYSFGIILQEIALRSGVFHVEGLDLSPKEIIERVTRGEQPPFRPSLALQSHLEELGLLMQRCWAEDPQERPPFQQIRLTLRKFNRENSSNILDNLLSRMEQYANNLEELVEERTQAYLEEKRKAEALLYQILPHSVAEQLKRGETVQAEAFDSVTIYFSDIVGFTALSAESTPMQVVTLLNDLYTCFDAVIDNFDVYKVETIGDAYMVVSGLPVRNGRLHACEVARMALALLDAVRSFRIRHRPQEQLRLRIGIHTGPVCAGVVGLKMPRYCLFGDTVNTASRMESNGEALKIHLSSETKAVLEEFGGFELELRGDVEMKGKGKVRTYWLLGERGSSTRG
row,EC50,SMILES
1,2 µM,CC(C)(C)C(=O)N1CCC(C(=O)Nc2nc3c(Cl)cccc3s2)CC1
2,23.9 µM,CC(=O)Nc1nc2c(F)cc(F)cc2s1
3,2.02 µM,O=C(Nc1nc2c(F)cc(F)cc2s1)C1CCCN(C(=O)Cc2ccccc2)C1 (stereo unspecified)
4,2.09 µM,CC(C)(C)C(=O)N1CCC(C(=O)Nc2nc3c(F)cc(F)cc3s2)C1 (stereo unspecified)
5,0.393 µM,CN(C)CCN1CCCC(C(=O)Nc2nc3c(F)cc(F)cc3s2)C1 (stereo unspecified)
6,1.72 µM,O=C(Nc1nc2c(F)cc(F)cc2s1)C1CCN(C(=O)C2CCC2)CC1
7,1.81 µM,O=C(Nc1nc2c(F)cc(F)cc2s1)C1CCCN(C(=O)C2CCC2)C1 (stereo unspecified)
8,1.97 µM,O=C(Nc1nc2c(F)cc(F)cc2s1)C1CCCN(C(=O)C2CC2)C1 (stereo unspecified)
9,5.07 µM,CC(C)(C)C(=O)N1CCCC(C(=O)Nc2nc3c(F)cc(F)cc3s2)C1 (stereo unspecified)
10,1.05 µM,O=C(Nc1nc2c(F)cc(F)cc2s1)C1CCCNC1 (stereo unspecified)
11,1.75 µM,CS(=O)(=O)N1CCCC(C(=O)Nc2nc3c(F)cc(F)cc3s2)C1 (stereo unspecified)
12,0.84 µM,CC(C)N1CCC(C(=O)Nc2nc3c(F)cc(F)cc3s2)CC1
13,1.65 µM,CC(=O)N1CCCC(C(=O)Nc2nc3c(F)cc(F)cc3s2)C1 (stereo unspecified)
14,1.15 µM,CC(=O)N1CCC(C(=O)Nc2nc3c(F)cc(F)cc3s2)CC1
15,2.41 µM,O=C(Nc1nc2c(F)cc(F)cc2s1)C1CCCN(Cc2ccccc2)C1 (stereo unspecified)
16,3.57 µM,CC(C)(C)CC(=O)N1CCCC(C(=O)Nc2nc3c(F)cc(F)cc3s2)C1 (stereo unspecified)
17,> 66.7 µM (inactive),CC(C)(C)C(=O)N1CCC(C(=O)Nc2nc3c(Cl)ccc(Cl)c3s2)CC1
18,1.23 µM,CN1CCCC(C(=O)Nc2nc3c(F)cc(F)cc3s2)C1 (stereo unspecified)
19,3.36 µM,O=C(Nc1nc2c(F)cc(F)cc2s1)C1CCCN(C(=O)c2ccccc2)C1 (stereo unspecified)
20,2.73 µM,O=C(Nc1nc2c(F)cc(F)cc2s1)C1CCCCC1
21,8.26 µM,CC(C)(C)OC(=O)N1CCCC(C(=O)Nc2nc3c(F)cc(F)cc3s2)C1 (stereo unspecified)
